Reference: patent US20050222271A1, “Novel amorphous form of memantine hydrochloride” (priority 2004, published 2005)

Experiment: Solubility (complete dissolution) of memantine hydrochloride in solvents
Format: physicochemical
Experimental: In particular, memantine hydrochloride is soluble in water, allowing the complete dissolution of memantine hydrochloride at room temperature at a concentration of 50 mg per milliliter (ml). The use of a relatively concentrated solution, e.g. about 50 mg per ml is therefore preferred.
In a first step of the distillation process, memantine hydrochloride is preferably dissolved in an […] solvent; more preferably dissolved in a straight or branched chain C1-C4 alcohol solvent, and most preferably dissolved in methanol or ethanol to form a solution. Memantine hydrochloride is soluble in methanol or ethanol, allowing the complete dissolution of memantine hydrochloride at ambient temperature.
In particular, memantine hydrochloride is soluble in methanol, allowing the complete dissolution of memantine hydrochloride in methanol at ambient temperature with a concentration of 30 mg per milliliter (ml). The use of a relatively concentrated solution, e.g. about 30 mg per ml is therefore preferred for methanol.
In particular, memantine hydrochloride is soluble in ethanol, allowing the complete dissolution of memantine hydrochloride in ethanol at ambient temperature with a concentration of 20 mg per ml. The use of a relatively concentrated solution, e.g. about 20 mg per ml is therefore preferred for ethanol.

CC12CC3CC(C)(C1)CC(N)(C3)C2.Cl [memantine hydrochloride, 1-amino-3,5-dimethyltricyclo[3,3,1,1^3,7]decane hydrochloride]
solubility in ethanol (complete dissolution with a concentration of) (ethanol, ambient temperature): ≥ 20 mg per ml
solubility in methanol (complete dissolution with a concentration of) (methanol, ambient temperature): ≥ 30 mg per milliliter (ml)
solubility in water (complete dissolution at a concentration of) (water, room temperature): ≥ 50 mg per milliliter (ml)
